Results: patent US7531195B2, “Schisandrin B preparation” (priority 2005, dated 2009)
Marks after values point to notes of the source that are not given here.

Experiments:
[1] = test system: Isolated-Perfused Rat Heart; experiment: Myocardial ischemia-reperfusion injury (LDH leakage), isolated-perfused heart of old rats; format: in vivo; details: liposome-encapsulated, 10 mg/kg daily, 35 days
Method: Aged male and female rats (˜12 months old) were administered with liposome-encapsulated (−) Schisandrin B in drinking water for 35 days, with the daily dose estimated to be 10 mg/kg.
Male/Female adult Sprague-Dawley rats (˜12 months old) were maintained under a 12-h dark/light cycle at about 22° C. and allowed food and water ad libitum. Animals were randomly divided into groups, with at least 5 animals in each. In the pretreatment groups, rats were treated with liposome-encapsulated (−) Schisandrin B in drinking water for 35 days, with the estimated daily dose of 10 mg/kg. Control animals received empty liposomes-containing drinking water. Twenty-four hours following the last dosing, hearts were isolated from control or drug-pretreated rats and then subjected to Langendorff perfusion as described below.
The heart was excised quickly and immediately immersed in ice-cold and heparinized (50 unit/ml) saline. The aorta was cannulated and then transferred to a warm and moistured chamber of the perfusion apparatus. The heart was retrogradely perfused according to Langendorff method as described (Yim and Ko 1999).
After an initial 30-min of perfusion for equilibration, the isolated heart was subjected to a 40-min period of ‘no-flow’ global ischemia followed by 20 min of reperfusion. Coronary effluent was collected in 1-min fractions at increasing time intervals during the course of equilibration and reperfusion. The fractions were immediately put on ice until assay for lactate dehydrogenase (LDH) activity. The extent of LDH leakage during the reperfusion period, an indirect index of myocardial injury, was estimated by computing the area under the curve of the graph plotting the percent LDH activity (with respect to the mean pre-ischemic value measured during the equilibration period) against the reperfusion time (1-20 min), as described (Yim and Ko 1999). Immediately after the I-R procedure, heart ventricular tissue samples were obtained for biochemical analysis.

[2] = test system: mitochondria of brain, heart, liver and skeletal muscle; experiment: Ca2+-induced mitochondrial permeability transition (MPT) in tissues of young adult and middle-aged rats; format: in vivo, rat
Method: Young adult (8-10 week-old) and middle-aged (12-14 month-old retired breeder) female Sprague-Dawley rats were maintained under a 12-h dark/light cycle at about 22° C. and allowed food and water ad libitum. Experimental protocols were approved by the Research Practice Committee at the Hong Kong University of Science & Technology, Hong Kong. Animals were randomly divided into groups, with 5 animals in each. In the treatment groups, rats were intragastrically administered with Sch B (dissolved/suspended in olive oil) at a daily dose of 10 mg/kg for 15 days. The daily dose is approximated to 1.14 mg/kg for humans after adjusting the inter-species difference in drug distribution in the body. Untreated control animals received olive oil only. Twenty-four hours after the last dosing, animals were sacrificed by decapitation and the whole brain, heart ventricular, liver and skeletal muscle (hind limb) tissues were excised and subjected to biochemical analysis. […]
Tissue homogenates were prepared as described above. […] An aliquot (1.6 ml) of mitochondrial sample (0.5 mg protein/ml) was prepared by mixing mitochondrial fraction with incubation buffer (125 mM sucrose, 65 mM KCl, 10 mM Hepes, pH 7.2, 5 mM succinate (freshly prepared) and 5 μM rotenone (freshly prepared). Aliquots (200 μl) of mitochondrial sample were mixed with 10 μl of cyclosporin A (5 μM in 0.5% ethanol final concentration) or incubation buffer. The mixtures were incubated at 30° C. for 5 min. An aliquot (10 μl) of calcium chloride solution (1 μM final concentration) was then added, and the mixtures were incubated at 30° C. for 5 min. Aliquots (180 μl) of the mixtures were added into 96-well micro-titer plate, and the initial absorbance of the mixtures at 520 nm was monitored for 5 min at 30° C. The swelling reaction was then started by adding 20 μl of K3PO4 (0.5 mM, pH 7.2), and the absorbance at 520 nm of the reaction mixtures was read every 2 min for 30 min at 30° C., using Victor V^2 Multi-Label Counter. […]

COc1cc2c(c(OC)c1OC)-c1c(cc3c(c1OC)OCO3)CC(C)C(C)C2 (single isomer, unassigned; (-)) [(−) Sch B, (−) Schisandrin B]
LDH Leakage ([1]; I-R, old female): 4534 ± 86.5^b AU
LDH Leakage, percent protection vs unpretreated control ([1]; I-R, old female): (56%)
LDH Leakage ([1]; I-R, old male): 2426 ± 219^a AU
LDH Leakage, percent protection vs unpretreated control ([1]; I-R, old male): (62%)
LDH Leakage ([1]; NON-I-R, old female): 611 ± 49.7 AU
LDH Leakage ([1]; NON-I-R, old male): 570 ± 66.8 AU
extent of inhibition of sensitivity to Ca2+-induced MPT ([2]; middle-aged rats, all tissues except liver, range among tissues): 15-29%
sensitivity to Ca2+-induced MPT in liver ([2]; middle-aged rats, liver): did not show detectable change
decrease of sensitivity to Ca2+-induced MPT ([2]; young adult rat tissues, 10 mg/kg/day x 15, range among tissues): 15-48%
